# Reference: patent US7872004B2, “6-(heterocyclyl-substituted benzyl)-4-oxoquinoline compound and use thereof as HIV integrase inhibitor” (Japan Tobacco Inc., priority 2006, dated 2011)
# Target: T1, HIV integrase (Human immunodeficiency virus type 1 group M subtype B, UniProt P12497, F1332H)
# T1 construct: HIV integrase full length gene; made in house; host or cells: Escherichia coli BL21(DE3)
# Assay: Determination of enzyme (HIV integrase) inhibitory activity
# Type: biochemical, HIV (Human Immunodeficiency Virus (type 1))
# Settings: recombinant integrase protein (F185H), strand transfer plate assay, absorbance at 450 nm
row,SMILES,IC50
1,"CCc1cc2c(cc1Cc1cc(N3CCCC3=O)cc(Cl)c1F)c(=O)c(C(=O)O)cn2[C@H](CO)C(C)(C)C [Example 52, 6-[3-chloro-2-fluoro-5-(2-oxopyrrolidin-1-yl)benzyl]-7-ethyl-1-((S)-1-hydroxymethyl-2,2-dimethylpropyl)-4-oxo-1,4-dihydroquinoline-3-carboxylic acid]",10 to 100 nM
2,"CC(C)(C)[C@@H](CO)n1cc(C(=O)O)c(=O)c2cc(Cc3cc(N4CCOCC4)cc(Cl)c3F)ccc21 [Example 53, 6-[3-chloro-2-fluoro-5-(morpholin-4-yl)benzyl]-1-((S)-1-hydroxymethyl-2,2-dimethylpropyl)-4-oxo-1,4-dihydroquinoline-3-carboxylic acid]",< 10 nM
3,"CC(C)(C)[C@@H](CO)n1cc(C(=O)O)c(=O)c2cc(Cc3cc(N4CCCC4=O)c(F)c(Cl)c3F)ccc21 [Example 54, 6-[3-chloro-2,4-difluoro-5-(2-oxopyrrolidin-1-yl)benzyl]-1-((S)-1-hydroxymethyl-2,2-dimethylpropyl)-4-oxo-1,4-dihydroquinoline-3-carboxylic acid]",< 10 nM
4,"CCc1cc2c(cc1Cc1cc(N3CCCC3=O)c(F)c(Cl)c1F)c(=O)c(C(=O)O)cn2[C@H](CO)C(C)(C)C [Example 55, 6-[3-chloro-2,4-difluoro-5-(2-oxopyrrolidin-1-yl)benzyl]-7-ethyl-1-((S)-1-hydroxymethyl-2,2-dimethylpropyl)-4-oxo-1,4-dihydroquinoline-3-carboxylic acid]",10 to 100 nM
5,"CC(C)(C)[C@@H](CO)n1cc(C(=O)O)c(=O)c2cc(Cc3cc(N4CCOCC4)c(F)c(Cl)c3F)ccc21 [Example 56, 6-[3-chloro-2,4-difluoro-5-(morpholin-4-yl)benzyl]-1-((S)-1-hydroxymethyl-2,2-dimethylpropyl)-4-oxo-1,4-dihydroquinoline-3-carboxylic acid]",< 10 nM
6,"COc1cc2c(cc1Cc1cc(-c3noc(C)n3)cc(Cl)c1F)c(=O)c(C(=O)O)cn2[C@H](CO)C(C)C [Example 57, 6-[3-chloro-2-fluoro-5-(5-methyl-1,2,4-oxadiazol-3-yl)benzyl]-1-((S)-1-hydroxymethyl-2-methylpropyl)-7-methoxy-4-oxo-1,4-dihydroquinoline-3-carboxylic acid]",< 10 nM
7,"CC(C)(C)[C@H](CO)n1cc(C(=O)O)c(=O)c2cc(Cc3cc(N4CCOCC4)c(F)c(Cl)c3F)ccc21 [Example 59, 6-[3-chloro-2,4-difluoro-5-(morpholin-4-yl)benzyl]-1-((R)-1-hydroxymethyl-2,2-dimethylpropyl)-4-oxo-1,4-dihydroquinoline-3-carboxylic acid]",10 to 100 nM
